According to patent US20210330611A1, “THERAPY FOR NEUROLOGICAL DISEASES/DISORDERS” (priority 2020, published 2021):
Where a name gives a salt, the structure may show the parent alone. Read-outs that look alike come from different tables or passages of the source.

Columns and labels:
[1] = test system: LPS-induced microglia activation; assay: Image-based assay of LPS-induced microglia activation (HTS and dose response); assay type: cell-based, rat; conditions: primary microglia HTS, LPS stimulation, compounds at 10 μM; for inhibition at 10 µM: Rattus norvegicus, Microglia, read-out: LPS % inhibition
primary rat microglia [2] = test system: primary rat microglia
[3] = test system: fibrin-induced microglia activation; assay: Image-based assay of fibrin-induced microglia activation (HTS and dose response); assay type: cell-based, rat; conditions: primary microglia HTS, fibrin stimulation, compounds at 10 μM; for inhibition at 10 µM: Rattus norvegicus, Microglia, read-out: Fibrin % inhibition
primary rat microglia [4] = assay: Cell toxicity (dead cells, size <150 μm2) in coated fibrin (cFib) assay; conditions: primary microglia HTS, fibrin assay, dead cells (size <150 μm2), compounds at 10 μM;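 further: share of dead cells sized under 150 µm2 at 10 µM in fibrin-stimulated microglia HTS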
[5] = test system: fibrin- and LPS-induced microglia activation; assay: cells; assay type: cell-based, rat; conditions: classification by fibrin and LPS inhibition, HTS at 10 μM

Row | SMILES | inhibition at 10 µM [1] | LPS % cell toxicity (primary rat microglia [2]; rat) | inhibition at 10 µM [3] | Fibrin % cell toxicity (primary rat microglia [4]) | Quadrant (FIG. 5b) [5] | LPS % inhibition [1] | LPS % cell toxicity (primary rat microglia [2]) | Fibrin % inhibition [3] | LPS % inhibition ([1]; 10 µM) | Fibrin % inhibition ([3]; 10 µM)
1 | CC1=NS(=O)(=O)c2cc(Cl)ccc2N1 [Diazoxide] | 24% | 0% | 3% | 0% | Q4 | – | – | – | – | –
2 | c1ccc2c(c1)sc1ccccc12 [Dibenzothiophene] | 14% | 0% | -21% | 0% | Q4 | – | – | – | – | –
3 | CCCCOC(=O)c1ccccc1C(=O)OCCCC [Dibutyl Phthalate] | 9% | 0% | -30% | 1% | Q4 | – | – | – | – | –
4 | Oc1ccc(Cl)cc1Cc1cc(Cl)ccc1O [Dichlorophene, Dichlorophen] | – | – | – | 1% | Q4 | 15% | 0% | −23% | – | –
5 | N#CC(c1ccc(Cl)cc1)c1c(Cl)cc(-n2ncc(=O)[nH]c2=O)cc1Cl (stereo not shown) [Diclazuril] | 21% | 0% | 48% | 1% | Q4 | – | – | – | – | –
6 | Cc1onc(-c2c(Cl)cccc2Cl)c1C(=O)N[C@@H]1C(=O)N2[C@@H]1SC(C)(C)[C@@H]2C(=O)O [Dicloxacillin] | 14% | 0% | -23% | 0% | Q4 | – | – | – | – | –
7 | C/C=C(/C(=C/C)c1ccc(O)cc1)c1ccc(O)cc1 [Dienestrol] | 21% | 0% | 17% | 1% | Q4 | – | – | – | – | –
8 | CCN(CC)C(=O)N1CCN(C)CC1 [Diethylcarbamazine] | 11% | 0% | -26% | 0% | Q4 | – | – | – | – | –
9 | CN1CCN(c2cc3c(cc2F)c(=O)c(C(=O)O)cn3-c2ccc(F)cc2)CC1 [Difloxacin Hydrochloride] | 33% | 1% | 25% | 1% | Q4 | – | – | – | – | –
10 | CN[C@@H]1[C@H](O[C@H]2[C@H](O[C@H]3[C@H](O)[C@@H](O)[C@H](NC(=N)N)[C@@H](O)[C@@H]3NC(=N)N)O[C@@H](C)[C@]2(O)CO)O[C@@H](CO)[C@H](O)[C@H]1O [Dihydrostreptomycin Sulfate] | 12% | 0% | -7% | 1% | Q4 | – | – | – | – | –
11 | Oc1c(I)cc(I)c2cccnc12 [Diiodohydroxyquinoline] | 22% | 0% | -6% | 1% | Q4 | – | – | – | – | –
12 | CN(C(=O)C(Cl)Cl)c1ccc(OC(=O)c2ccco2)cc1 [Diloxanide Furoate] | 17% | 0% | -3% | 1% | Q4 | – | – | – | – | –
13 | O=S(=O)([O-])CCSSCCS(=O)(=O)[O-].[Na+].[Na+] [Dimesna] | – | – | – | 1% | Q4 | 13% | 0% | −19% | – | –
14 | CC1(C)OC(=O)NC1=O [Dimethadione] | 14% | 0% | -13% | 1% | Q4 | – | – | – | – | –
15 | COC(=O)/C=C/C(=O)OC [Dimethyl Fumarate] | 16% | 0% | 4% | 0% | Q4 | – | – | – | – | –
16 | N=C(N)c1ccc(/N=N/Nc2ccc(C(=N)N)cc2)cc1 [Diminazene] | 11% | 0% | -58% | 0% | Q4 | – | – | – | – | –
17 | CCCCC[C@H](O)/C=C/[C@@H]1[C@@H](C/C=C\CCCC(=O)O)[C@@H](O)C[C@H]1O [Dinoprost Tromethamine] | 15% | 0% | 36% | 1% | Q4 | – | – | – | – | –
18 | COc1ccc(-c2cc(=O)c3c(O)cc(O[C@@H]4O[C@H](CO[C@@H]5O[C@@H](C)[C@H](O)[C@@H](O)[C@H]5O)[C@@H](O)[C@H](O)[C@H]4O)cc3o2)cc1O [Diosmin] | 10% | 0% | -12% | 1% | Q4 | – | – | – | – | –
19 | COc1ccc(C(=O)c2ccccc2O)c(O)c1 [Dioxybenzone] | 16% | 0% | -4% | 1% | Q4 | – | – | – | – | –
20 | O=C(Nc1ccccc1)OCC(CN1CCCCC1)OC(=O)Nc1ccccc1 (stereo not shown) [Diperodon Hydrochloride] | 26% | 1% | 42% | 1% | Q4 | – | – | – | – | –
21 | OC(CCCN1CCCCC1)(c1ccccc1)c1ccccc1 [Diphenidol] | -5% | 0% | -34% | 1% | Q4 | – | – | – | – | –
22 | CC(=O)Oc1cccc(C(=O)O)c1OC(C)=O [Dipyrocetyl] | 7% | 0% | -1% | 1% | Q4 | – | – | – | – | –
23 | CC[C@H]1OC(=O)[C@H](C)[C@@H](O[C@H]2C[C@@](C)(OC)[C@@H](O)[C@H](C)O2)[C@H](C)[C@@H](O[C@@H]2O[C@H](C)C[C@H](N(C)C)[C@H]2O)[C@](C)(O)C[C@@H](C)[C@@H]2N[C@@H](COCCOC)O[C@H]([C@H]2C)[C@]1(C)O [Dirithromycin] | 27% | 1% | 7% | 1% | Q4 | – | – | – | – | –
24 | CC(C)N(CCC(C(N)=O)(c1ccccc1)c1ccccn1)C(C)C (stereo not shown) [Disopyramide] | 1% | 0% | -13% | 1% | Q4 | – | – | – | – | –
25 | CCOC(=S)SSC(=S)OCC [Dixanthogen] | 17% | 0% | 4% | 1% | Q4 | – | – | – | – | –
26 | CC(CCc1ccc(O)cc1)NCCc1ccc(O)c(O)c1 (stereo not shown) [Dobutamine Hydrochloride] | – | 0% | – | 1% | Q4 | – | – | – | 27% | 22%
27 | CC(CCc1ccc(O)cc1)NCCc1ccc(O)c(O)c1 (stereo not shown) [Dobutamine] | – | 0% | – | 1% | Q4 | – | – | – | −7% | −29%
28 | CC/C=C\C/C=C\C/C=C\C/C=C\C/C=C\C/C=C\CCC(=O)O [Doconexent] | 11% | 0% | 3% | 1% | Q4 | – | – | – | – | –
29 | CCCCCCCCCCCCCCCCCCCCCCO [Docosanol] | -2% | 0% | -10% | 0% | Q4 | – | – | – | – | –
